Test results as given in the supplement of paper PMC10920090.

Experiments:
Conditions in all cases: 72 h
[1] = tested on: MDA-MB-231; assay: drug sensitivity score (DSS), cell viability CellTiter-Glo; higher = more sensitive; extreme values may be limits of the assay
[2] = tested on: MDA-MB-231; assay: drug sensitivity score (DSS), cytotoxicity CellTox Green; higher = more cytotoxic; extreme values may be limits of the assay
[3] = tested on: BT-474; assay: drug sensitivity score (DSS), cell viability CellTiter-Glo; higher = more sensitive; extreme values may be limits of the assay
Description: (§1)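 Targeted FIMM drug screen of 23 compounds at 5 concentrations over a 10,000-fold range in 384-well plates, 1250 cells/well, 72 h at 37 °C. Read-outs were CellTiter-Glo viability and CellTox Green cytotoxicity, normalised to DMSO and benzethonium chloride controls and summarised as drug sensitivity score (DSS). Cells stably transduced with shScramble or one of two shPPFIA1 constructs (shPPFIA1_1 TRCN0000002969, shPPFIA1_2 TRCN0000342514).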

[4] = tested on: UT-SCC-24A; assay: as above
Description: as §1

[5] = tested on: BT-474; assay: drug sensitivity score (DSS), cytotoxicity CellTox Green; higher = more cytotoxic; extreme values may be limits of the assay
Description: as §1

[6] = tested on: UT-SCC-24A; assay: as above
Description: as §1

SMILES | drug sensitivity score ([1]; shRNA: shPPFIA1_1) | drug sensitivity score ([1]; shRNA: shScramble) | drug sensitivity score ([2]; shRNA: shPPFIA1_1) | drug sensitivity score ([2]; shRNA: shScramble) | drug sensitivity score ([3]; shRNA: shPPFIA1_1) | drug sensitivity score ([3]; shRNA: shPPFIA1_2) | drug sensitivity score ([3]; shRNA: shScramble) | drug sensitivity score ([4]; shRNA: shPPFIA1_1) | drug sensitivity score ([4]; shRNA: shPPFIA1_2) | drug sensitivity score ([4]; shRNA: shScramble) | drug sensitivity score ([5]; shRNA: shPPFIA1_1) | drug sensitivity score ([5]; shRNA: shPPFIA1_2) | drug sensitivity score ([5]; shRNA: shScramble) | drug sensitivity score ([6]; shRNA: shPPFIA1_1) | drug sensitivity score ([6]; shRNA: shPPFIA1_2) | drug sensitivity score ([6]; shRNA: shScramble)
COc1cc2ncnc(Nc3ccc(F)c(Cl)c3)c2cc1OCCCN1CCOCC1 [Gefitinib] | 2.3 DSS | 2.3 DSS | 0 DSS | 0 DSS | 7.8 DSS | 9.1 DSS | 10.8 DSS | 19.6 DSS | 18.4 DSS | 12.1 DSS | 4.1 DSS | 5.6 DSS | 4.8 DSS | 19.4 DSS | 17.3 DSS | 8.3 DSS
Cn1c(=O)n(-c2ccc(C(C)(C)C#N)cc2)c2c3cc(-c4cnc5ccccc5c4)ccc3ncc21 [Dactolisib] | 0 DSS | 4.2 DSS | 0 DSS | 0 DSS | 7.4 DSS | 7.4 DSS | 11 DSS | 16.2 DSS | 17 DSS | 18 DSS | 0 DSS | 0 DSS | 0 DSS | 1.3 DSS | 0.5 DSS | 2.3 DSS
O=C(NOCCO)c1ccc2cncn2c1Nc1ccc(I)cc1F [GDC-0623] | 3.7 DSS | 18.1 DSS | 5.2 DSS | 11.2 DSS | 0 DSS | 0 DSS | 0 DSS | 2 DSS | 0 DSS | 1.8 DSS | 0 DSS | 0 DSS | 0 DSS | 1.8 DSS | 0 DSS | 0.8 DSS
O=C(NC[C@H](O)CO)c1ccncc1Nc1ccc(I)cc1F [Pimasertib] | 2.4 DSS | 12.4 DSS | 6.2 DSS | 11.7 DSS | 0.1 DSS | 0.5 DSS | 0.4 DSS | 25.6 DSS | 23.4 DSS | 20.5 DSS | 0 DSS | 0.2 DSS | 0 DSS | 28.5 DSS | 23.5 DSS | 15.6 DSS
Cc1cc(C(=O)NOCCO)c(Nc2ccc(I)cc2F)n(C)c1=O [AZD-8330] | 5.5 DSS | 21.8 DSS | 15 DSS | 20.3 DSS | 0 DSS | 0 DSS | 0 DSS | 30 DSS | 27.6 DSS | 23.9 DSS | 0 DSS | 0 DSS | 0 DSS | 28.4 DSS | 27.6 DSS | 14.2 DSS
CC(C)CC(=O)Nc1n[nH]c2c1CN(C(=O)C1CCN(C)CC1)C2(C)C | 1.8 DSS | 20.1 DSS | 3.2 DSS | 0 DSS | 1.2 DSS | 1.3 DSS | 1.5 DSS | 8.1 DSS | 8.5 DSS | 5.8 DSS | 0.9 DSS | 1.1 DSS | 0.4 DSS | 1.9 DSS | 1.4 DSS | 1.2 DSS
CC(=O)NCC(=O)N1[C@@H]2CC[C@H]1c1ccc(Nc3ncc(C(F)(F)F)c(NC4CCC4)n3)cc12 | 5.5 DSS | 21.7 DSS | 2.8 DSS | 0 DSS | 2.7 DSS | 2.8 DSS | 4.5 DSS | 8 DSS | 8.7 DSS | 8.5 DSS | 3 DSS | 3.7 DSS | 3.5 DSS | 4.1 DSS | 3.9 DSS | 4.3 DSS
O=C(Nc1ccc2[nH]nc(-c3ccncc3)c2c1)[C@@H]1CCN(CC(=O)N2CCN(c3ccc(-c4ncccn4)cc3)CC2)C1 | 2.1 DSS | 10.8 DSS | 6 DSS | 10.9 DSS | 0 DSS | 0 DSS | 0 DSS | 21.3 DSS | 20.5 DSS | 17.3 DSS | 0 DSS | 0.2 DSS | 0 DSS | 21.7 DSS | 21.1 DSS | 11.6 DSS
CN(C)C/C=C/C(=O)Nc1cc2c(Nc3ccc(F)c(Cl)c3)ncnc2cc1O[C@H]1CCOC1 [Afatinib] | 0.2 DSS | 1.4 DSS | 0 DSS | 0 DSS | 13.2 DSS | 13.3 DSS | 16.2 DSS | 18.5 DSS | 18.1 DSS | 13.4 DSS | 7.4 DSS | 8.7 DSS | 7.9 DSS | 20.4 DSS | 19.8 DSS | 12 DSS
CN[C@@H](C)C(=O)N[C@H](C(=O)N1CCC[C@H]1c1nc(C(=O)c2ccc(F)cc2)cs1)C1CCCCC1 [NVP-LCL161] |  |  |  |  | 1 DSS | 1.4 DSS | 0.7 DSS | 4.5 DSS | 5.7 DSS | 4.2 DSS | 2.4 DSS | 3.3 DSS | 1.3 DSS | 10.2 DSS | 12.8 DSS | 8.1 DSS
